Results: article PMC7822874, “Chemoprotective antimalarials identified through quantitative high-throughput screening of Plasmodium blood and liver stage parasites” (Scientific Reports, 2021)
Entries after “also recorded” stand apart in the source; their conditions may differ. Like-named read-outs stand apart in the source and are kept apart here.

How the values were obtained:
[1] = system: P. falciparum Dd2 Cytb G131S; experiment: SYBR Green ABS proliferation assay, NCGC00374598 selected clone C11; type: cell-based, Plasmodium falciparum; conditions: for AC50: Plasmodium falciparum
Outline: (§1)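 Asexual blood-stage proliferation of cytochrome b-mutant Dd2 clones after 72 h compound exposure at 37 °C in low-oxygen gas, quantified as control-normalized SYBR Green-I fluorescence; differences tested by two-sided t-test.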

[2] = system: P. falciparum Dd2 Cytb V259L; experiment: SYBR Green ABS proliferation assay, NCGC00473217 selected clone F06; type: cell-based, Plasmodium falciparum; conditions: Plasmodium falciparum
Outline: as §1

HepG2 cells = experiment: HepG2 mammalian toxicity, CellTiter-Glo, 48 h; conditions: 48 h compound exposure
[3] = HepG2 mammalian toxicity, CellTiter-Glo, 48 h; conditions: human; for AC50 at 48 h: HepG2 cells, HepG2 AC50 (mammalian cellular toxicity), 48 h compound exposure
[4] = Rat liver microsomal stability (RLMS); conditions: for half-life: rat
Experimental: (§2) Pharmacokinetic modeling experiments, parallel artificial membrane permeability assay (PAMPA), solubility, and rat liver microsome stability assessment were performed on all synthetic compounds, as previously described[73]–[75].

[5] = system: P. falciparum Dd2 Cytb F123L; experiment: SYBR Green ABS proliferation assay, NCGC00473217 selected clone G08; type: cell-based, Plasmodium falciparum; conditions: Plasmodium falciparum
Outline: as §1

[6] = system: P. falciparum Dd2 (clone B2) asexual blood stage parasites; experiment: P. falciparum Dd2 asexual blood stage SYBR Green-I 72 h proliferation assay (qHTS); type: cell-based, Plasmodium falciparum
[7] = system: luciferase-expressing P. berghei liver stage parasites in HepG2 cells; experiment: Inhibition of liver-stage development assay (ILSDA), Method 2 (WRAIR, 96-well); type: cell-based, Plasmodium berghei; conditions: for AC50: Plasmodium berghei
[8] = system: P. falciparum Dd2 Cytb A122D; experiment: SYBR Green ABS proliferation assay, NCGC00473217 selected clone F12; type: cell-based, Plasmodium falciparum; conditions: Plasmodium falciparum
Outline: as §1

Aqueous solubility = type: physicochemical; conditions: for solubility: aqueous media
Experimental: as §2; call rule not given here

[9] = Parallel artificial membrane permeability assay (PAMPA); type: in vitro ADME; conditions: for PAMPA pH7.4: pH 7.4
Experimental: as §2

[10] = system: P. berghei-ANKA-GFP-LucCON liver stage parasites in HepG2-A16-CD81EGFP cells; experiment: P. berghei liver stage Pb-Luc assay, Method 1 (UCSD, 1536-well); type: cell-based, Plasmodium berghei; conditions: Plasmodium berghei
[11] = system: P. falciparum Dd2-B2 parasites; experiment: In vitro resistance selection under constant drug pressure; type: cell-based, Plasmodium falciparum
Experimental: Recently cloned P. falciparum Dd2-B2 parasites, cultured in duplicate flasks each harboring an inoculum of 2 × 10^9 parasites, were subjected to constant drug pressure from NCGC00473217 at 5 × AC50 or NCGC00374598 at 3 × AC50. […] Clones were then obtained by limiting dilution and three to four clones from each flask were expanded for profiling and sequencing.
Fresh uninfected RBCs (0.5% hematocrit) were added on day 7 and media was changed every other day. […] Resistant parasites were maintained under drug media at a volume of 50 mL until a high parasitemia (> 5%) was achieved. Aliquots of the bulk resistant cultures were frozen in cryovials before cloning by limiting dilution in 96-well plates (seeded at 0.25 or 0.5 parasites/well)[70]. After 3 weeks of cloning, we screened for positive wells by flow cytometry with SYBR Green-stained cells. […] Parasites were harvested by saponin lysis at the trophozoite stage and genomic DNA was extracted using the QIAamp DNA Blood Midi Kit (Qiagen, Germantown, MD)[71].

[12] = system: T1, Plasmodium falciparum Dd2 asexual blood stage parasites; experiment: microbe, parasite or virus in culture; set-up: species or system P. falciparum Dd2 in human erythrocytes; SYBR Green-I proliferation assay, P. falciparum Dd2 asexual blood stages, growth inhibition; conditions: DD2, Erythrocyte, 72 h, SYBR Green-I
T1 construct: Dd2 line, asexual blood stage
Experimental: The P. falciparum parasite Dd2 line was cultured in vitro using standard conditions63. Briefly, parasites were maintained in 2% human O+ erythrocytes (Interstate Blood Bank, Memphis, TN) in RPMI-1640 medium (Life Technologies, Grand Island, NY) supplemented with 0.5% Albumax II (Life Technologies), 2 mM l-glutamine, 50 mg/L hypoxanthine, 25 mM HEPES, 0.225% NaHCO3, 24 mM sodium bicarbonate, and 10 μg/ml gentamycin. Tissue culture flasks and assay plates were incubated at 37 °C under a gas mixture of 5% CO2, 5% O2 and 90% N2. Methods for the SYBR Green-I qHTS, calculation of AC50 (50% of the normalized compound response relative to the maximum response), and definition of curve classes have been described30,64–66. qHTS assays were performed in a single replicate with a 7- to 11-point dose response format, and follow-up screens with 3–11 independent 11-point response assays. Significant differences were assessed using two-sided Student’s t-tests. All HTS assays were stopped and read at 72 h. Percent response values represent relative growth as judged by SYBR Green-I fluorescence intensity values normalized to controls. […] […]

[13] = system: sporozoites / hepatocytes; conditions: cited from earlier work
[14] = DD2, NCGC00374598 selected clone C11, read-out: AC50 [μM], Cytb G131S (converted)
[15] = DD2, NCGC00374598 selected clone, read-out: AC50 Log[M] ± SD, Cytb G131S (converted)
[16] = DD2, NCGC00473217 selected clone F06, read-out: AC50 [μM], Cytb V259L (converted)
[17] = DD2, NCGC00473217 selected clone, read-out: AC50 Log[M] ± SD, Cytb V259L (converted)
[18] = DD2, NCGC00473217 selected clone G08, highest concentration 29 µM, read-out: AC50 [μM], Cytb F123L (converted)
[19] = DD2, NCGC00473217 selected clone, read-out: AC50 Log[M] ± SD, Cytb F123L (converted)
[20] = Plasmodium falciparum, DD2, 72 h, SYBR Green 72 h, WT Dd2-B2, read-out: AC50 Log[M] ± SD, Dd2-B2 (parental line) (converted)
[21] = Plasmodium falciparum, DD2, 72 h, SYBR Green 72 h, approximate value in μM, read-out: AC50 [μM], Dd2-B2 (parental line) (converted)
[22] = SYBR Green 72 h, approximate value in μM
[23] = HepG2, 48 h, 48 h, firefly luciferase reporter P. berghei line, read-out: ILSDA AC50
[24] = HepG2, 48 h, 48 h, read-out: ILSDA AC50 (Method 2)
[25] = DD2, NCGC00473217 selected clone F12, read-out: AC50 [μM], Cytb A122D (converted)
[26] = DD2, NCGC00473217 selected clone, read-out: AC50 Log[M] ± SD, Cytb A122D (converted)

SMILES | AC50 [1, 14] [µM] | AC50 [1, 15] [µM] | AC50 [2, 16] [µM] | AC50 [2, 17] [µM] | HepG2 AC50 (mammalian cellular toxicity) (HepG2 cells) | AC50 at 48 h [3] [nM] | RLMS T1/2 ([4]; rat liver microsomes) | half-life ([4]; rat liver microsomes) [min] | AC50 [5, 18] [µM] | AC50 [5, 19] [µM] | AC50 [6, 20] [M] | AC50 [6, 21] [M] | AC50 [μM], Dd2-B2 (parental line) [6, 22] | AC50 [7, 23] [nM] | AC50 [7, 24] [nM] | AC50 [8, 25] [µM] | AC50 [8, 26] [µM] | Aqueous Solubility (Aqueous solubility) | solubility (Aqueous solubility) [µg/mL] | PAMPA permeability [9] | other results
CCCN1C(c2ccccc2)=NS(=O)(=O)c2cc(NC(=O)c3cccs3)ccc21 [NCGC00532332] | 0.861 | 0.851 | 4.31 | 4.27 | Neither compound was cytotoxic | > 20000 | favorable | 22.6 | 2 | 2 | 5.89e-07 | 5.86e-07 | sub-micromolar | 39 | < 50 | 1.5 | 1.51 | poor aqueous solubility | < 1 | high permeability; also recorded: favorable | PAMPA pH7.4 [9]: 714 1e-6 cm/s
CC(=O)Nc1ccc(CN2CCc3nc(C(C)C)nc(-c4ccc(Cl)cc4)c3CC2)cc1 [NCGC00374598] |  | 3.47 |  | 2.82 | no apparent toxicity |  |  |  |  | 0.389 | 1.58e-06 | 1.5e-06 |  |  |  |  | 2.09 |  |  |  | AC50 ([1]; DD2, Suppl Table 6, read-out: AC50 (mM), Dd2 Cytb G131S): 3.47 µM; AC50 ([2]; DD2, Suppl Table 6, read-out: AC50 (mM), Dd2 Cytb V259L): 2.82 µM; AC50 [3]: > 20000 nM; AC50 ([10]; UCSD, read-out: liver stage AC50 (Method 1)): 710 nM; inhibition at 1 µM ([10]; 1 μM): > 60%; inhibition at 3 µM ([10]; 3 μM): > 90%; half-life ([4]; microsomes): 4 min; AC50 ([5]; DD2, Suppl Table 6, read-out: AC50 (mM), Dd2 Cytb F123L): 0.389 µM; AC50 ([6]; Plasmodium falciparum, DD2, Suppl Table 6, read-out: AC50 (mM), WT (Dd2-B2)): 1.51e-06 M; AC50 ([6]; SYBR Green 72 h, approximate value in μM, read-out: AC50 [μM], Dd2-B2 (parental line) (converted)): 1.51e-06 M; Max Resp (signal direction of the dose response) ([7]; Method 2, Decrease = decreasing P. berghei viability with dose, Increase = increasing signal, Inactive = no dose response): Inactive; AC50 ([7]; HepG2, mean, read-out: liver stage AC50 (Method 2)): 500 nM; AC50 ([8]; DD2, Suppl Table 6, read-out: AC50 (mM), Dd2 Cytb A122D): 2.09 µM; Recrudescence under pressure ([11]; 2 × 10^9 parasites, 5 × AC50 (NCGC00473217) or 3 × AC50 (NCGC00374598)): 36 days; AC50 increase of selected clones ([11]; clones from selections with the same compound): threefold increase
COc1cc(Cc2cnc(N)nc2N)cc(OC)c1OC [NCGC00016055-05] |  |  |  |  |  |  |  |  |  |  |  |  |  |  |  |  |  |  |  |  | AC50 [12]: > 28000 nM
CCCN1C(c2ccccc2)=NS(=O)(=O)c2cc(NC(=O)c3ccc(F)cc3)ccc21 [NCGC00532331] | 0.71 | 0.708 | 2.33 | 2.34 | Neither compound was cytotoxic | > 20000 | favorable | > 30 | 3.3 | 3.31 | 8.91e-07 | 8.94e-07 | sub-micromolar | 48 | < 50 | 1.85 | 1.86 | poor aqueous solubility | < 1 | good PAMPA permeability; also recorded: favorable | AC50 [μM], Cytb G131S ([1]; NCGC00374598 selected clone C11): maintained potency; PAMPA pH7.4 [9]: 896 1e-6 cm/s
CC(C)(CN)c1nc(-c2ccc(Cl)c(O)c2)c(-c2ccncc2)[nH]1 [MMV030084] |  |  |  |  |  |  |  |  |  |  |  |  |  |  |  |  |  |  |  |  | IC50 ([13]; added 2 h post sporozoite addition): > 10000 nM; IC50 ([13]; pre-treat hepatocytes 4 h prior to adding sporozoites): 199 nM
CNC(=O)Oc1cccc(-c2cn3cc(OC(=O)NC)ccc3n2)c1 [MLS000700241-01] |  |  |  |  |  |  |  |  |  |  |  |  |  |  |  |  |  |  |  |  | AC50 [12]: > 28000 nM
